# Source: PMC6637216 (BioImpacts : BI, 2019)
# Values joined by “and” are separate entries in the source; they are usually repeats but may differ in a detail not shown here. Equal entries are not always repeated.
# Columns and labels:
# [1] = target: T1, AChE from Electrophorus electricus (electric eel) (Electrophorus electricus, UniProt O42275); test: Ellman colorimetric AChE inhibition and kinetics in aqueous phosphate buffer; type: biochemical; settings: for nH (Hill coefficient) / Vmax / α / α': aqueous buffer
# [2] = target: AChE (Electrophorus electricus, UniProt O42275); test: ThT displacement from AChE; type: binding; settings: quenching of ThT-AChE fluorescence, 0.1 M phosphate buffer pH 8.0
# [3] = target: T1, AChE from Electrophorus electricus (electric eel); test: Ellman AChE inhibition and kinetics in HSA matrix; type: biochemical; settings: for ΔrIC50, relative decrease in inhibition potency in HSA versus buffer: (IC50(HSA)-IC50(Buffer))/IC50(Buffer)x100; for Vmax / α / α': HSA medium (in parentheses); for nH (Hill coefficient): HSA medium, values in parentheses
# T1 sequence (O42275 24-633): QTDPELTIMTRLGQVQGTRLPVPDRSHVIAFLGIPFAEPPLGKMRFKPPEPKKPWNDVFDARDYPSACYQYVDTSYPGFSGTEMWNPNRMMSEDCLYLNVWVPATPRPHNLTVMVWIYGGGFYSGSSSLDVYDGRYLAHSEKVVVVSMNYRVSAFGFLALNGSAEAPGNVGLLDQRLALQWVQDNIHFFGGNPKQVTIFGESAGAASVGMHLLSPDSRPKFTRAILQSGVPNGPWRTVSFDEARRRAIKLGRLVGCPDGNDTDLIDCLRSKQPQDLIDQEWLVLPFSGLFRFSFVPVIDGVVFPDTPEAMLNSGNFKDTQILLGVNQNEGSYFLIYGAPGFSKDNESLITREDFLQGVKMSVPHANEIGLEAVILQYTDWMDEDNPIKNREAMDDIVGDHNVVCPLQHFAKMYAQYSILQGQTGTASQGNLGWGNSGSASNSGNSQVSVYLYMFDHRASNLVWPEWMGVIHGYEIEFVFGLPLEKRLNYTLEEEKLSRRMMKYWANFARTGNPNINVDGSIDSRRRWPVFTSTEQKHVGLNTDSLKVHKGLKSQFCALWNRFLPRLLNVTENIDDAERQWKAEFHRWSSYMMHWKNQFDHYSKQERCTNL
# AChE, sequence (O42275 24-633): as above
SMILES,IC50 [1] [nM],nH (Hill coefficient) [1],Vmax ([1]; inhibitor 5 nM) [nM/s],α ([1]; inhibitor 5 nM),α' ([1]; inhibitor 5 nM),Vmax ([1]; inhibitor 10 nM) [nM/s],α ([1]; inhibitor 10 nM),α' ([1]; inhibitor 10 nM),KSV (Stern-Volmer constant) [2] [M⁻¹],IC50 [3] [nM],"ΔrIC50, relative decrease in inhibition potency in HSA versus buffer [3]",Vmax ([3]; inhibitor 5 nM) [nM/s],α ([3]; inhibitor 5 nM),α' ([3]; inhibitor 5 nM),Vmax ([3]; inhibitor 10 nM) [nM/s],α ([3]; inhibitor 10 nM),α' ([3]; inhibitor 10 nM),nH (Hill coefficient) [3]
"Cc1cc(=O)c2ccc(N)cc2o1 [AMC, 7-amino-2-methylchromone]",103 ± 11.9,1.45 ± 0.1,670 ± 26,1.2 (1.2),1.2 (1.2),560 ± 39,1.4,1.4 (1.4),230000,115,~ 5% and 5%,711 ± 47,1.2 (1.2),1.2 (1.2),557 ± 39,1.5,1.4 (1.4),1.52±0.1
"N#Cc1coc2ccccc2c1=O [CyC, 3-cyanochromone]",85.1 ± 6.7,1.51 ± 0.1,631 ± 21,1.3,1.3,538 ± 31,1.5,1.5,370000,113,~ 32% and 32%,730 ± 17,1.1,1.1,671 ± 30,1.2,1.2,1.89±0.17
